{
  "source": "patent US12605404B2",
  "about": "“Synthetic cellular membrane chemical ionophore delivery system comprising hexa-aqua ligand compositions” (priority 2021, dated 2026)",
  "test_system": "Staphylococcus aureus (MRSA)",
  "assay": "Broth Microdilution (CLSI-BMD), non-biofilm, 10 MRSA isolates",
  "assay_type": "cell-based",
  "excerpt": "A non-biofilm antimicrobial assay using the broth microdilution-based sensitivity method was completed at the University of Debrecen, Hungary. […] A percentage solution calculation established that twice the amount of vancomycin was needed to create the same 50% turbidity reduction in MRSA when tested in comparison to ZC-1.",
  "data": [
    {"smiles": "CN[C@H](CC(C)C)C(=O)N[C@H]1C(=O)N[C@@H](CC(N)=O)C(=O)N[C@H]2C(=O)N[C@H]3C(=O)N[C@H](C(=O)N[C@H](C(=O)O)c4cc(O)cc(O)c4-c4cc3ccc4O)[C@H](O)c3ccc(c(Cl)c3)Oc3cc2cc(c3O[C@@H]2O[C@H](CO)[C@@H](O)[C@H](O)[C@H]2O[C@H]2C[C@](C)(N)[C@H](O)[C@H](C)O2)Oc2ccc(cc2Cl)[C@H]1O", "note": "[Vancomycin]", "values": [
      {"measurement": "MIC values, range", "setting": "control, 10 MRSA isolates", "value": "4 to 16", "unit": "µg/mL"},
      {"measurement": "amount needed for the same 50% turbidity reduction in MRSA, in comparison to ZC-1", "setting": "percentage solution calculation", "value": "twice"}
    ]}
  ]
}
